For 8 compounds, clearance results are on record in patent publication US8580918B2, “Peptidic GLP-2 agonists” (Ferring B.V., priority 2009, dated 2013).

Each structure is given as a SMILES string. Where a SMILES comes first, the peptide text is derived from it. [ ]: non-standard residue; d: D form. dPhe(4-Cl) = N[C@H](Cc1ccc(Cl)cc1)C(=O)O; Dip = N[C@H](C(=O)O)C(c1ccccc1)c1ccccc1; Phe(4-NH2) = Nc1ccc(C[C@H](N)C(=O)O)cc1; 2Nal = N[C@@H](Cc1ccc2ccccc2c1)C(=O)O; hPhe = N[C@@H](CCc1ccccc1)C(=O)O; Cha = N[C@@H](CC1CCCCC1)C(=O)O; Nle = CCCC[C@H](N)C(=O)O

The first series is described as follows: Pharmacokinetics in rats after intravenous bolus injection (systemic clearance). Format: in vivo. The settings on record: rat, plasma, 0.2 mg FB/kg, adult male Sprague-Dawley rats, i.v. bolus, dose 0.20 mg FB/kg, read-out: CL (ml/kg/min) Average. As for the experimental part: Pharmacokinetic (PK) parameters of illustrative agonists of the GLP-2 receptor were determined in adult male Sprague-Dawley rats post intravenous bolus injection of compounds at doses of 0.1-1.0 mg/kg. Three or four doubly cannulated animals per compound were dosed via jugular vein, blood samples were collected at several intervals via carotid artery, and plasma samples were prepared from whole blood using K2EDTA as anticoagulant. Subsequent bioanalysis of samples included compound extraction and plasma concentration determination using standard LC/MS/MS methods. Analyte concentration was calculated from internal standard normalized peak area and calibration curves.
For calculation of PK parameters the compound concentration-time curves were analyzed with the noncompartmental data analysis software package PK Solutions 2.0™ (Summit Research Services, Montrose Colo.). The systemic clearance per kg body weight (CL) was calculated as the dose per kg body weight divided by the AUC extrapolated to infinity based on trapezoid calculation (AUC∞). Values reported are the arithmetic mean and standard deviation from the number of animals used for each compound as indicated on Table 3.
As to `CCCC[C@H](NC(=O)[C@H](CCC(=O)O)NC(=O)[C@H](CC(=O)O)NC(=O)[C@H](CO)NC(=O)[C@H](Cc1ccccc1)NC(=O)[C@H](CO)NC(=O)CNC(=O)[C@H](CC(=O)O)NC(=O)CNC(=O)[C@@H](N)Cc1c[nH]cn1)C(=O)N[C@@H](CC(N)=O)C(=O)N[C@H](C(=O)N[C@H](C(=O)N[C@@H](CC(C)C)C(=O)N[C@@H](CC(=O)O)C(=O)N[C@@H](Cc1c[nH]c2ccccc12)C(=O)N[C@@H](CC(C)C)C(=O)N[C@@H](C)C(=O)N[C@@H](C)C(=O)N[C@@H](CCCNC(=N)N)C(=O)N[C@@H](CC(=O)O)C(=O)N[C@@H](Cc1ccccc1)C(=O)N[C@H](C(=O)N[C@@H](CC(N)=O)C(=O)N[C@@H](Cc1c[nH]c2ccccc12)C(=O)N[C@@H](CC(C)C)C(=O)N[C@H](C(=O)N[C@@H](CCC(N)=O)C(=O)N[C@H](C(=O)N[C@@H](CCCCN)C(N)=O)[C@@H](C)O)[C@@H](C)CC)[C@@H](C)CC)[C@@H](C)CC)[C@@H](C)O` [Compound 22, [Gly2,Nle10,Trp16] hGLP-2 (1-30)-NH2] (H-HGDGSFSDE[Nle]NTILDWLAARDFINWLIQTK-NH2), the clearance was 0.5 mL/kg/min.
On the same count and under the same terms, then `CCCC[C@H](NC(=O)[C@H](CCC(=O)O)NC(=O)[C@H](CC(=O)O)NC(=O)[C@H](CO)NC(=O)[C@H](Cc1ccccc1)NC(=O)[C@H](CO)NC(=O)CNC(=O)[C@H](CC(=O)O)NC(=O)CNC(=O)[C@@H](N)Cc1cnc[nH]1)C(=O)N[C@@H](CC(N)=O)C(=O)N[C@H](C(=O)N[C@H](C(=O)N[C@@H](CC(C)C)C(=O)N[C@@H](CC(=O)O)C(=O)N[C@@H](CC1CCCCC1)C(=O)N[C@@H](CC(C)C)C(=O)N[C@@H](C)C(=O)N[C@@H](C)C(=O)N[C@@H](CCCNC(=N)N)C(=O)N[C@@H](CC(=O)O)C(=O)N[C@@H](Cc1ccccc1)C(=O)N[C@H](C(=O)N[C@@H](CC(N)=O)C(=O)N[C@@H](Cc1c[nH]c2ccccc12)C(=O)N[C@@H](CC(C)C)C(=O)N[C@H](C(=O)N[C@@H](CCC(N)=O)C(=O)N[C@H](C(=O)N[C@@H](CCCCN)C(N)=O)[C@@H](C)O)[C@@H](C)CC)[C@@H](C)CC)[C@@H](C)CC)[C@@H](C)O` [Compound 23, [Gly2,Nle10,Cha16] hGLP-2 (1-30)-NH2] (H-HGDGSFSDE[Nle]NTILD[Cha]LAARDFINWLIQTK-NH2), with 0.41 mL/kg/min.
On to `CCCC[C@H](NC(=O)[C@H](CCC(=O)O)NC(=O)[C@H](CC(=O)O)NC(=O)[C@H](CO)NC(=O)[C@H](Cc1ccccc1)NC(=O)[C@H](CO)NC(=O)CNC(=O)[C@H](CC(=O)O)NC(=O)CNC(=O)[C@@H](N)Cc1c[nH]cn1)C(=O)N[C@@H](CC(N)=O)C(=O)N[C@H](C(=O)N[C@H](C(=O)N[C@@H](CC(C)C)C(=O)N[C@@H](CC(=O)O)C(=O)N[C@@H](Cc1ccc(N)cc1)C(=O)N[C@@H](CC(C)C)C(=O)N[C@@H](C)C(=O)N[C@@H](C)C(=O)N[C@@H](CCCNC(=N)N)C(=O)N[C@@H](CC(=O)O)C(=O)N[C@@H](Cc1ccccc1)C(=O)N[C@H](C(=O)N[C@@H](CC(N)=O)C(=O)N[C@@H](Cc1c[nH]c2ccccc12)C(=O)N[C@@H](CC(C)C)C(=O)N[C@H](C(=O)N[C@@H](CCC(N)=O)C(=O)N[C@H](C(=O)N[C@@H](CCCCN)C(N)=O)[C@@H](C)O)[C@@H](C)CC)[C@@H](C)CC)[C@@H](C)CC)[C@@H](C)O` [Compound 24, [Gly2,Nle10,Aph16] hGLP-2 (1-30)-NH2] (H-HGDGSFSDE[Nle]NTILD[Phe(4-NH2)]LAARDFINWLIQTK-NH2), for which the clearance turned out to be 1.9 mL/kg/min.
`CCCC[C@H](NC(=O)[C@H](CCC(=O)O)NC(=O)[C@H](CC(=O)O)NC(=O)[C@H](CO)NC(=O)[C@H](Cc1ccccc1)NC(=O)[C@H](CO)NC(=O)CNC(=O)[C@H](CC(=O)O)NC(=O)CNC(=O)[C@@H](N)Cc1c[nH]cn1)C(=O)N[C@@H](CC(N)=O)C(=O)N[C@H](C(=O)N[C@H](C(=O)N[C@@H](CC(C)C)C(=O)N[C@@H](CC(=O)O)C(=O)N[C@H](C(=O)N[C@@H](CC(C)C)C(=O)N[C@@H](C)C(=O)N[C@@H](C)C(=O)N[C@@H](CCCNC(=N)N)C(=O)N[C@@H](CC(=O)O)C(=O)N[C@@H](Cc1ccccc1)C(=O)N[C@H](C(=O)N[C@@H](CC(N)=O)C(=O)N[C@@H](Cc1c[nH]c2ccccc12)C(=O)N[C@@H](CC(C)C)C(=O)N[C@H](C(=O)N[C@@H](CCC(N)=O)C(=O)N[C@H](C(=O)N[C@@H](CCCCN)C(N)=O)[C@@H](C)O)[C@@H](C)CC)[C@@H](C)CC)C(c1ccccc1)c1ccccc1)[C@@H](C)CC)[C@@H](C)O` [Compound 26, [Gly2,Nle10,Dip16] hGLP-2 (1-30)-NH2] (H-HGDGSFSDE[Nle]NTILD[Dip]LAARDFINWLIQTK-NH2): the clearance was determined as 0.33 mL/kg/min.
For the compound `CCCC[C@H](NC(=O)[C@H](CCC(=O)O)NC(=O)[C@H](CC(=O)O)NC(=O)[C@H](CO)NC(=O)[C@H](Cc1ccccc1)NC(=O)[C@H](CO)NC(=O)CNC(=O)[C@H](CC(=O)O)NC(=O)CNC(=O)[C@@H](N)Cc1c[nH]cn1)C(=O)N[C@@H](CC(N)=O)C(=O)N[C@H](C(=O)N[C@H](C(=O)N[C@@H](CC(C)C)C(=O)N[C@@H](CC(=O)O)C(=O)N[C@@H](CCc1ccccc1)C(=O)N[C@@H](CC(C)C)C(=O)N[C@@H](C)C(=O)N[C@@H](C)C(=O)N[C@@H](CCCNC(=N)N)C(=O)N[C@@H](CC(=O)O)C(=O)N[C@@H](Cc1ccccc1)C(=O)N[C@H](C(=O)N[C@@H](CC(N)=O)C(=O)N[C@@H](Cc1c[nH]c2ccccc12)C(=O)N[C@@H](CC(C)C)C(=O)N[C@H](C(=O)N[C@@H](CCC(N)=O)C(=O)N[C@H](C(=O)N[C@@H](CCCCN)C(N)=O)[C@@H](C)O)[C@@H](C)CC)[C@@H](C)CC)[C@@H](C)CC)[C@@H](C)O` [Compound 28, [Gly2,Nle10,hPhe16] hGLP-2 (1-30)-NH2] (H-HGDGSFSDE[Nle]NTILD[hPhe]LAARDFINWLIQTK-NH2), the clearance is 0.44 mL/kg/min.
Same read-out and setting: then `CCCC[C@H](NC(=O)[C@H](CCC(=O)O)NC(=O)[C@H](CC(=O)O)NC(=O)[C@H](CO)NC(=O)[C@H](Cc1ccccc1)NC(=O)[C@H](CO)NC(=O)CNC(=O)[C@H](CC(=O)O)NC(=O)CNC(=O)[C@@H](N)Cc1cnc[nH]1)C(=O)N[C@H](Cc1ccc(Cl)cc1)C(=O)N[C@H](C(=O)N[C@H](C(=O)N[C@@H](CC(C)C)C(=O)N[C@@H](CC(=O)O)C(=O)N[C@@H](CC(N)=O)C(=O)N[C@@H](CC(C)C)C(=O)N[C@@H](C)C(=O)N[C@@H](C)C(=O)N[C@@H](CCCNC(=N)N)C(=O)N[C@@H](CC(=O)O)C(=O)N[C@@H](Cc1ccccc1)C(=O)N[C@H](C(=O)N[C@@H](CC(N)=O)C(=O)N[C@@H](Cc1c[nH]c2ccccc12)C(=O)N[C@@H](CC(C)C)C(=O)N[C@H](C(=O)N[C@@H](CCC(N)=O)C(=O)N[C@H](C(=O)N[C@@H](CCCCN)C(N)=O)[C@@H](C)O)[C@@H](C)CC)[C@@H](C)CC)[C@@H](C)CC)[C@@H](C)O` [Compound 29, [Gly2,Nle10,D-Cpa11] hGLP-2 (1-30)-NH2] (H-HGDGSFSDE[Nle][dPhe(4-Cl)]TILDNLAARDFINWLIQTK-NH2), with 0.51 mL/kg/min; and `CCCC[C@H](NC(=O)[C@H](CCC(=O)O)NC(=O)[C@H](CC(=O)O)NC(=O)[C@H](CO)NC(=O)[C@H](Cc1ccccc1)NC(=O)[C@H](CO)NC(=O)CNC(=O)[C@H](CC(=O)O)NC(=O)CNC(=O)[C@@H](N)Cc1c[nH]cn1)C(=O)N[C@H](Cc1c[nH]c2ccccc12)C(=O)N[C@H](C(=O)N[C@H](C(=O)N[C@@H](CC(C)C)C(=O)N[C@@H](CC(=O)O)C(=O)N[C@@H](CC(N)=O)C(=O)N[C@@H](CC(C)C)C(=O)N[C@@H](C)C(=O)N[C@@H](C)C(=O)N[C@@H](CCCNC(=N)N)C(=O)N[C@@H](CC(=O)O)C(=O)N[C@@H](Cc1ccccc1)C(=O)N[C@H](C(=O)N[C@@H](CC(N)=O)C(=O)N[C@@H](Cc1c[nH]c2ccccc12)C(=O)N[C@@H](CC(C)C)C(=O)N[C@H](C(=O)N[C@@H](CCC(N)=O)C(=O)N[C@H](C(=O)N[C@@H](CCCCN)C(N)=O)[C@@H](C)O)[C@@H](C)CC)[C@@H](C)CC)[C@@H](C)CC)[C@@H](C)O` [Compound 30, [Gly2,Nle10,D-Trp11] hGLP-2 (1-30)-NH2] (H-HGDGSFSDE[Nle][dW]TILDNLAARDFINWLIQTK-NH2), with 1.2 mL/kg/min.

Staying with this series, now noted: rat, plasma, adult male Sprague-Dawley rats, i.v. bolus, dose 0.18 mg FB/kg, read-out: CL (ml/kg/min) Average.
On to `CCCC[C@H](NC(=O)[C@H](CCC(=O)O)NC(=O)[C@H](CC(=O)O)NC(=O)[C@H](CO)NC(=O)[C@H](Cc1ccccc1)NC(=O)[C@H](CO)NC(=O)CNC(=O)[C@H](CC(=O)O)NC(=O)CNC(=O)[C@@H](N)Cc1c[nH]cn1)C(=O)N[C@@H](CC(N)=O)C(=O)N[C@H](C(=O)N[C@H](C(=O)N[C@@H](CC(C)C)C(=O)N[C@@H](CC(=O)O)C(=O)N[C@@H](Cc1ccc2ccccc2c1)C(=O)N[C@@H](CC(C)C)C(=O)N[C@@H](C)C(=O)N[C@@H](C)C(=O)N[C@@H](CCCNC(=N)N)C(=O)N[C@@H](CC(=O)O)C(=O)N[C@@H](Cc1ccccc1)C(=O)N[C@H](C(=O)N[C@@H](CC(N)=O)C(=O)N[C@@H](Cc1c[nH]c2ccccc12)C(=O)N[C@@H](CC(C)C)C(=O)N[C@H](C(=O)N[C@@H](CCC(N)=O)C(=O)N[C@H](C(=O)N[C@@H](CCCCN)C(N)=O)[C@@H](C)O)[C@@H](C)CC)[C@@H](C)CC)[C@@H](C)CC)[C@@H](C)O` [Compound 20, [Gly2,Nle10,2-Nal16] hGLP-2 (1-30)-NH2] (H-HGDGSFSDE[Nle]NTILD[2Nal]LAARDFINWLIQTK-NH2), for which the clearance worked out at 0.28 mL/kg/min.
